Test results taken from ChEMBL document CHEMBL5338747, “Discovery of Quaternized Pyridine-Thiazole-Pleuromutilin Derivatives with Broad-Spectrum Antibacterial and Potent Anti-MRSA Activity” (J Med Chem, 2023).
In brackets after ≈: the same amount, converted by molar mass.

Tests used:
[1] = Aqueous solubility of the compound in physiological saline measured after 12 hrs by UV spectrophotometric analysis; format: physicochemical
[2] = tested on: Staphylococcus aureus; experiment: Antibacterial activity against methicillin-resistant Staphylococcus aureus ATCC 43300 assessed as inhibition of bacterial growth incubated for 24 hrs by broth microdilution method; format: functional
[3] = tested on: Acinetobacter baumannii; experiment: Antibacterial activity against Acinetobacter baumannii ATCC 19606 assessed as inhibition of bacterial growth incubated for 24 hrs by broth microdilution method; format: functional
[4] = tested on: Staphylococcus aureus; experiment: Antibacterial activity against […] assessed as inhibition of bacterial growth incubated for 24 hrs by broth microdilution method; format: functional; conditions: ATCC 29213
[5] = tested on: Staphylococcus epidermidis; experiment: Antibacterial activity against methicillin-resistant Staphylococcus epidermidis ATCC 51625 assessed as inhibition of bacterial growth incubated for 24 hrs by broth microdilution method; format: functional
[6] = tested on: Staphylococcus aureus; experiment: Antibacterial activity against methicillin-resistant Staphylococcus aureus ATCC 33591 assessed as inhibition of bacterial growth incubated for 24 hrs by broth microdilution method; format: functional
[7] = tested on: Escherichia coli; experiment: Antibacterial activity against Escherichia coli CMCC 44103 assessed as inhibition of bacterial growth incubated for 24 hrs by broth microdilution method; format: functional
[8] = tested on: Escherichia coli; experiment: Antibacterial activity against Escherichia coli ATCC 25922 assessed as inhibition of bacterial growth incubated for 24 hrs by broth microdilution method; format: functional
[9] = tested on: Salmonella enterica; experiment: Antibacterial activity against Salmonella enterica ATCC 14028 assessed as inhibition of bacterial growth incubated for 24 hrs by broth microdilution method; format: functional

| SMILES | solubility at 12 h [1] [µM] | MIC [2] [µg/mL] | MIC [3] [µg/mL] | MIC [4] [µg/mL] | MIC [5] [µg/mL] | MIC [6] [µg/mL] | MIC [7] [µg/mL] | MIC [8] [µg/mL] | MIC [9] [µg/mL] |
| --- | --- | --- | --- | --- | --- | --- | --- | --- | --- |
| C=C[C@]1(C)C[C@@H](OC(=O)CSc2nc(-c3cc[n+](Cc4cc(OC)cc(OC)c4)cc3)cs2)[C@]2(C)[C@H](C)CC[C@]3(CCC(=O)[C@H]32)[C@@H](C)[C@@H]1O.[Br-] | 912 | 128 | 8 | 128 | 128 | 64 | 8 | 32 | 16 |
| C=C[C@]1(C)C[C@@H](OC(=O)CSc2nnc(-c3ccncc3)o2)[C@]2(C)[C@H](C)CC[C@]3(CCC(=O)[C@H]32)[C@@H](C)[C@@H]1O | – | 128 (≈ 237 µM) | 128 (≈ 237 µM) | 16 (≈ 29.6 µM) | 128 (≈ 237 µM) | 64 (≈ 119 µM) | 128 (≈ 237 µM) | > 128 | 64 (≈ 119 µM) |
| C=C[C@]1(C)C[C@@H](OC(=O)CSc2nnc(-c3cc[n+](Cc4ccccc4)cc3)o2)[C@]2(C)[C@H](C)CC[C@]3(CCC(=O)[C@H]32)[C@@H](C)[C@@H]1O.[Br-] | – | 32 | 128 | 16 | 128 | 64 | 64 | 128 | 32 |
| C=C[C@]1(C)C[C@@H](OC(=O)CSc2nc(-c3cc[n+](CCCC)cc3)cs2)[C@]2(C)[C@H](C)CC[C@]3(CCC(=O)[C@H]32)[C@@H](C)[C@@H]1O.[Br-] | 672 | 4 | 16 | 4 | 4 | 2 | 4 | 16 | 2 |
| C=C[C@]1(C)C[C@@H](OC(=O)CSc2nc(-c3cc[n+](Cc4cc(F)cc(F)c4)cc3)cs2)[C@]2(C)[C@H](C)CC[C@]3(CCC(=O)[C@H]32)[C@@H](C)[C@@H]1O.[Br-] | 803 | 64 | 8 | 64 | 64 | 64 | 32 | 16 | 16 |
| C=C[C@]1(C)C[C@@H](OC(=O)CSc2nc(-c3cc[n+](Cc4ccc(C(C)(C)C)cc4)cc3)cs2)[C@]2(C)[C@H](C)CC[C@]3(CCC(=O)[C@H]32)[C@@H](C)[C@@H]1O.[Br-] | 306 | 2 | 2 | 0.25 | 2 | 1 | 2 | 2 | 2 |
| C=C[C@]1(C)C[C@@H](OC(=O)CSc2nc(-c3cc[n+](Cc4ccc(F)cc4)cc3)cs2)[C@]2(C)[C@H](C)CC[C@]3(CCC(=O)[C@H]32)[C@@H](C)[C@@H]1O.[Br-] | 807 | 8 | 16 | 1 | 4 | 2 | 1 | 2 | 1 |
| C=C[C@]1(C)C[C@@H](OC(=O)CSc2nc(-c3cc[n+](Cc4cc(C)cc(C)c4)cc3)cs2)[C@]2(C)[C@H](C)CC[C@]3(CCC(=O)[C@H]32)[C@@H](C)[C@@H]1O.[Br-] | 543 | 128 | 8 | 128 | 128 | 64 | 32 | 32 | 16 |
| C=C[C@]1(C)C[C@@H](OC(=O)CSc2nnc(-c3cc[n+](Cc4ccc(C)cc4)cc3)o2)[C@]2(C)[C@H](C)CC[C@]3(CCC(=O)[C@H]32)[C@@H](C)[C@@H]1O.[Br-] | – | 16 | 128 | 4 | 64 | 16 | 64 | 32 | 32 |
| Br.C=C[C@]1(C)C[C@@H](OC(=O)CSc2nc(-c3cc[n+](Cc4ccc([N+](=O)[O-])o4)cc3)cs2)[C@]2(C)[C@H](C)CC[C@]3(CCC(=O)[C@H]32)[C@@H](C)[C@@H]1O | 1650 | 8 | 16 | 4 | 8 | 32 | 64 | 8 | 32 |
| Br.C=C[C@]1(C)C[C@@H](OC(=O)CSc2nnc(-c3cc[n+](Cc4ccc([N+](=O)[O-])cc4)cc3)o2)[C@]2(C)[C@H](C)CC[C@]3(CCC(=O)[C@H]32)[C@@H](C)[C@@H]1O | – | 64 | 64 | 32 | 32 | 32 | 128 | > 128 | 128 |
| C=C[C@]1(C)C[C@@H](OC(=O)CSc2nc(-c3cc[n+](Cc4ccc(-c5ccccc5)cc4)cc3)cs2)[C@]2(C)[C@H](C)CC[C@]3(CCC(=O)[C@H]32)[C@@H](C)[C@@H]1O.[Br-] | 271 | 1 | 2 | 0.5 | 2 | 2 | 1 | 1 | 2 |
| C=C[C@]1(C)C[C@@H](OC(=O)CSc2nc(-c3cc[n+](Cc4ccc5ccccc5c4)cc3)cs2)[C@]2(C)[C@H](C)CC[C@]3(CCC(=O)[C@H]32)[C@@H](C)[C@@H]1O.[Br-] | 483 | 4 | 16 | 4 | 4 | 16 | 8 | 16 | 4 |
| C=C[C@]1(C)C[C@@H](OC(=O)CSc2nc(-c3cc[n+](Cc4ccc(C(F)(F)F)cc4)cc3)cs2)[C@]2(C)[C@H](C)CC[C@]3(CCC(=O)[C@H]32)[C@@H](C)[C@@H]1O.[Br-] | 899 | 4 | 2 | 0.25 | 2 | 2 | 2 | 1 | 2 |
| C=C[C@]1(C)C[C@@H](OC(=O)CSc2nc(-c3cc[n+](CCCCCCCCCC)cc3)cs2)[C@]2(C)[C@H](C)CC[C@]3(CCC(=O)[C@H]32)[C@@H](C)[C@@H]1O.[Br-] | 203 | 2 | 4 | 0.25 | 2 | 1 | 4 | 2 | 1 |
| C=C[C@]1(C)C[C@@H](OC(=O)CSc2nc(-c3cc[n+](Cc4ccc(C#N)cc4)cc3)cs2)[C@]2(C)[C@H](C)CC[C@]3(CCC(=O)[C@H]32)[C@@H](C)[C@@H]1O.[Br-] | 683 | 2 | 32 | 0.125 | 16 | 64 | 8 | 2 | 32 |
| C=C[C@]1(C)C[C@@H](OC(=O)CSc2nc(-c3ccncc3)cs2)[C@]2(C)[C@H](C)CC[C@]3(CCC(=O)[C@H]32)[C@@H](C)[C@@H]1O | – | 32 (≈ 57.7 µM) | 64 (≈ 115 µM) | 8 (≈ 14.4 µM) | 32 (≈ 57.7 µM) | 16 (≈ 28.8 µM) | 32 (≈ 57.7 µM) | 64 (≈ 115 µM) | 32 (≈ 57.7 µM) |
| C=C[C@]1(C)C[C@@H](OC(=O)CSc2nc(-c3cc[n+](Cc4ccc(Cl)cc4)cc3)cs2)[C@]2(C)[C@H](C)CC[C@]3(CCC(=O)[C@H]32)[C@@H](C)[C@@H]1O.[Br-] | 649 | 2 | 2 | 0.125 | 8 | 2 | 1 | 0.5 | 2 |
| C=C[C@]1(C)C[C@@H](OC(=O)CSc2nc(-c3cc[n+](Cc4ccsc4)cc3)cs2)[C@]2(C)[C@H](C)CC[C@]3(CCC(=O)[C@H]32)[C@@H](C)[C@@H]1O.[Br-] | 702 | 0.5 | 8 | 0.25 | 1 | 1 | 0.5 | 1 | 2 |
| C=C[C@]1(C)C[C@@H](OC(=O)CSc2nc(-c3cc[n+](Cc4ccccc4)cc3)cs2)[C@]2(C)[C@H](C)CC[C@]3(CCC(=O)[C@H]32)[C@@H](C)[C@@H]1O.[Br-] | 871 | – | 4 | 0.125 | 4 | 1 | 0.25 | – | – |
| C=C[C@]1(C)C[C@@H](OC(=O)CSc2nc(-c3cc[n+](CCCCCCCCCCCCCCCC)cc3)cs2)[C@]2(C)[C@H](C)CC[C@]3(CCC(=O)[C@H]32)[C@@H](C)[C@@H]1O.[Br-] | 187 | 64 | > 128 | 64 | > 128 | > 128 | > 128 | > 128 | > 128 |
| C=C[C@]1(C)C[C@@H](OC(=O)CSc2nnc(-c3cc[n+](Cc4ccc(C#N)cc4)cc3)o2)[C@]2(C)[C@H](C)CC[C@]3(CCC(=O)[C@H]32)[C@@H](C)[C@@H]1O.[Br-] | – | 16 | > 128 | 16 | 64 | 32 | 64 | 64 | 32 |
| C=C[C@]1(C)C[C@@H](OC(=O)CSc2nc(-c3cc[n+](Cc4ccc(OC(F)(F)F)cc4)cc3)cs2)[C@]2(C)[C@H](C)CC[C@]3(CCC(=O)[C@H]32)[C@@H](C)[C@@H]1O.[Br-] | 537 | 2 | 8 | 2 | 4 | 2 | 32 | 2 | 4 |
